Earlier results as cited in paper PMC10211317, “Identification of ARUK2002821 as an isoform-selective PI5P4Kα inhibitor” (RSC Medicinal Chemistry, 2023).

Test system: p53-null cells
Design: method as in PMID 34699202
Details: cited from earlier work

## CC[C@@H](Nc1c(C#N)c(-c2ccc(-c3cccc(C)c3F)cc2)nc2cnccc12)C(=O)O [BAY-091]
  anti-proliferative activity: did not show anti-proliferative activity
